A short description of data set [1]: Audiogenic seizure (AGS) test, anticonvulsant activity. It is filed as in vivo, rat. The conditions noted are these: rat, in vivo; ratio of ROT TD50 to AGS ED50, iv, rats; read-out: PI (protective index = ROT-TD50/AGS-ED50). How it is done: (§1) With regard to the potential use of this family of compounds in the treatment of epilepsy, (+)-Carenadiol was evaluated in the audiogenic seizure (AGS-susceptible) rat model of eilepsy to assess its anticonvulsant activity, and the rat rotorod (ROT) paadigm was used to assess differential neurotoxicity (i.e., reflecting mainly sedation and/or incoordination), of this family of compounds.
(§2) For AGS tests, male and female, 150-225 gm, genetically epilepsy prone rats were used. For ROT tests, male and female, 150-225 gm. rats were used. CBD analogs (suspended in a vehicle of 10% polysorbate 80 and 90% distilled water) were injected intravenously and rats were tested 15 minutes later (a peak-effect time for both tests). In the AGS test, responses to sound were recorded as the presence or absence of seizure (i.e., generalized clonus or clonus and generalized flexion). In the ROT test, effects were measured as the ability or inability (i.e., neurotoxicity) of trained rats to remain on a revolving drum (rotorod) for 60 seconds.
(§3) Separate groups of 10-15 rats were used for each doses of drug tested and, typically, 3-6 doses of each analog were used for each AGS and ROT test. For appropriate dose-response data, median effective anticonvulsant (ED50) and neurotoxic (TD50) doses and regression line parameters were calculated by computer-assisted probit analysis. Subsequent calculations of 95% confidence limits (CL) and comparisons between slopes and median doses (i.e., ED50 and TD50 potency comparisons) were carried out using the method of Litchfield and Wilcoxon [J. Pharmacol Exp Ther 96:99-133(1949)].Protective indexes (PI =ROT-TD50/AGS-ED50) also were calculated.

Data set [2] has as its system genetically epilepsy prone rats. The description is as above. It is filed as in vivo, rat. Particulars: for ED50: Rattus norvegicus, 0.25 h, iv, rats, tested 15 minutes after injection, 95% confidence limits printed in parentheses on the next line, read-out: AGS ED50 (median effective anticonvulsant dose). How it is done:
as §1, §2, §3

Data set [3] is described as follows: Rat rotorod (ROT) test, differential neurotoxicity. It is filed as in vivo. The conditions noted are these: iv, rats, tested 15 minutes after injection, 95% confidence limits printed in parentheses on the next line, read-out: ROT TD50 (median neurotoxic dose). The protocol: as §1, §2, §3
In general terms: Falling from the rotarod earlier than controls is read as motor impairment.

For data set [4], the system named is laboratory animals. The conditions noted are these: cited from earlier work.
The conditions of data set [5]: in man; cited from earlier work.

Molecules are shown by their SMILES.

Broadly, the ED50 is the midpoint of the dose-response relation. In general, TD50 refers to the 50% point of the dose-response relation for the toxic effect studied. Consider `CCCCCc1cc(O)c(C2C=C(C)CC3C2C3(C)C)c(O)c1` (single isomer, unassigned; (+)) [(+)-5a], for which the selectivity ratio at 0.25 h in data set [1] was found to be 5.5. The ED50 in data set [2] was found to be 18.1 mg/kg. In addition, in data set [2] (comparison in words), the “activity among the compounds synthesized and tested” value was “the most active”. Besides, the TD50 at 0.25 h in data set [3] worked out at 99.8 mg/kg.
For the molecule `CCCCCCC(C)(C)c1cc(O)c(C2C=C(C)CC3C2C3(C)C)c(O)c1` (single isomer, unassigned; (+)) [(+)-5b], in data set [1], the selectivity ratio at 0.25 h turned out to be 1.1. For the same molecule, the median effective dose (ED50) in data set [2] worked out at 3.4 mg/kg. Further, the TD50 at 0.25 h in data set [3] came out at 3.7 mg/kg.
In the case of `C=C(C)[C@@H]1CCC(C)=C[C@H]1c1c(O)cc(CCCCC)cc1O` [(-)-CBD, (-)-Cannabidiol], the “activity in models that predict cannabimimetic activity” value in data set [4] is “inactive”. In addition, in data set [5], the antidystonic activity entry was “possibly antidystonic activity”; the antiepileptic efficacy entry is recorded as “antiepileptic efficacy”; the cannabimimetic activity result is reported as “no cannabimimetic activity”; the side effects result is “no recognized and undesired side effects”.
For the molecule `NC(=O)N1c2ccccc2C=Cc2ccccc21` [Carbamazepine], in data set [1], the selectivity ratio at 0.25 h turned out to be 2.7. The median effective dose (ED50) in data set [2] came out at 12.8 mg/kg. Moreover, the TD50 at 0.25 h in data set [3] is 33.9 mg/kg.
As to `CCC1(c2ccccc2)C(=O)NC(=O)NC1=O` [Phenobarbital], the selectivity ratio at 0.25 h in data set [1] was determined as 2.7. In addition, in data set [2], the ED50 came out at 10.8 mg/kg. The TD50 at 0.25 h in data set [3] was determined as 28.9 mg/kg.
Take `O=C1NC(=O)C(c2ccccc2)(c2ccccc2)N1` [Phenytoin]: the selectivity ratio at 0.25 h in data set [1] turned out to be 1.6. Besides, the ED50 in data set [2] was found to be 14.7 mg/kg. In addition, the TD50 at 0.25 h in data set [3] worked out at 23.9 mg/kg.

The record behind these values is US4758597A, “Carenadiol and derivatives” (University Patents, Inc., priority 1987, dated 1988).
